# Tested on: TDP-43 aggregation in PC12 cells stably expressing GFP-tagged mutant TDP-43 (TDP-43^Q33IK::eGFP)
# Experiment: In vitro efficacy assay: inhibition of TDP-43 inclusions, concentration-response, fluorescence microscopy
# Format: cell-based
# Conditions: Rattus norvegicus, PC-12, PC12 cells, 1 hour pre-treatment, 15 μM sodium arsenite for 23 hours, 10-point dose response curve
# Method: Exemplary compounds of the invention were evaluated for efficacy in inhibiting TDP-43 inclusions using a concentration-response assay. Briefly, PC12 cells stably expressing a GFP-tagged mutant form of TDP-43 (TDP-43^Q33IK::eGFP) were pre-treated for 1 hour with exemplary compounds and stressed with 15 μM sodium arsenite for 23 hours to induce TDP-43 aggregation. The inhibitory effect on TDP-43 aggregation was measured using fluorescence microscopy. The ratio of cells with TDP-43 aggregates was calculated based on the total number of cells with detectable GFP expression. In the table, “A” indicates an IC50 of less than 100 nM, “B” indicates an IC50 range from 100 nM to 500 nM; “C” indicates an IC50 range from 500 nM to 2 μM; and “D” indicates an IC50 greater than 2 μM.
row,IC50,SMILES
1,100 to 500 nM,CCN(C(=O)c1cc2ccccc2[nH]1)[C@H]1CCC[C@@H](NCc2nc3ccccc3s2)C1 [Compound 451]
2,> 2000 nM,CCN(C(=O)c1cc2ccccc2[nH]1)[C@H]1CCC[C@@H](NCc2ccnc(O)c2)C1 [Compound 452]
3,100 to 500 nM,CCN(C(=O)c1cc2ccccc2[nH]1)[C@H]1CCC[C@@H](NCc2cnoc2)C1 [Compound 453]
4,< 100 nM,CCN(C(=O)c1cc2ccccc2[nH]1)[C@H]1CCC[C@@H](NCc2nnc(C)s2)C1 [Compound 454]
5,< 100 nM,CCN(C(=O)c1cc2ccccc2[nH]1)[C@H]1CCC[C@@H](NCc2cc(C3CC3)no2)C1 [Compound 455]
6,< 100 nM,CCN(C(=O)c1cc2ccccc2[nH]1)[C@H]1CCC[C@@H](NCc2conc2C2CC2)C1 [Compound 456]
7,< 100 nM,CCN(C(=O)c1cc2ccccc2[nH]1)[C@H]1CCC[C@@H](NCc2ccnc(OC)c2)C1 [Compound 457]
8,100 to 500 nM,CCN(C(=O)c1cc2ccccc2[nH]1)[C@H]1CCC[C@@H](NCc2cc(C)no2)C1 [Compound 458]
9,< 100 nM,CCN(C(=O)c1cc2ccccc2[nH]1)[C@H]1CCC[C@@H](NCc2ccc3ocnc3c2)C1 [Compound 459]
10,< 100 nM,CCN(C(=O)c1cc2ccccc2[nH]1)[C@H]1CCC[C@@H](NCc2cc(C3CC3)on2)C1 [Compound 460]
11,500 to 2000 nM,CCN(C(=O)c1cc2ccccc2[nH]1)[C@H]1CCC[C@@H](NCc2cnn(C)c2)C1 [Compound 461]
12,< 100 nM,CCN(C(=O)c1cc2ccccc2[nH]1)[C@H]1CCC[C@@H](NCc2cc(C)on2)C1 [Compound 462]
13,< 100 nM,"C#CCOc1ccc(C(=O)c2ccc(CN[C@@H]3CCC[C@H](N(CC)C(=O)c4cc5ncccc5[nH]4)C3)cc2)cc1 [Compound 463, N-ethyl-N-((1S,3R)-3-((4-(4-(prop-2-yn-1-yloxy)benzoyl)benzyl)amino)cyclohexyl)-1H-pyrrolo[3,2-b]pyridine-2-carboxamide]"
14,< 100 nM,"CCN(C(=O)c1cc2ccccc2[nH]1)[C@H]1CCC[C@@H](NCc2ccc3ncoc3c2)C1 [Compound 464, N-((1S,3R)-3-((benzo[d]oxazol-6-ylmethyl)amino)cyclohexyl)-N-ethyl-1H-indole-2-carboxamide]"
15,500 to 2000 nM,"CCN(C(=O)c1cc2ccccc2[nH]1)[C@H]1CCC[C@@H](NCc2nccs2)C1 [Compound 465, N-ethyl-N-((1S,3R)-3-((thiazol-2-ylmethyl)amino)cyclohexyl)-1H-indole-2-carboxamide]"
16,> 2000 nM,CCN(C(=O)c1cc2ccccc2[nH]1)[C@H]1CCC[C@@H](NCc2c[nH]cn2)C1 [Compound 466]
17,< 100 nM,"CCN(C(=O)c1cc2ccccc2[nH]1)[C@H]1CCC[C@@H](NCc2nnc(C3CC3)s2)C1 [Compound 467, N-((1S,3R)-3-(((5-cyclopropyl-1,3,4-thiadiazol-2-yl)methyl)amino)cyclohexyl)-N-ethyl-1H-indole-2-carboxamide]"
18,500 to 2000 nM,"CCN(C(=O)c1cc2ncccc2[nH]1)[C@H]1CCC[C@@H](NCc2nnc(C)o2)C1 [Compound 468, N-ethyl-N-((1S,3R)-3-(((5-methyl-1,3,4-oxadiazol-2-yl)methyl)amino)cyclohexyl)-1H-pyrrolo[3,2-b]pyridine-2-carboxamide]"
19,100 to 500 nM,CCN(C(=O)c1cc2ccccc2[nH]1)[C@H]1CCC[C@@H](NCc2nnc(C)o2)C1 [Compound 469]
20,< 100 nM,CCN(C(=O)c1cc2ncccc2[nH]1)[C@H]1CCC[C@@H](NCc2cc(C(C)C)no2)C1 [Compound 470]
21,< 100 nM,CCN(C(=O)c1cc2ccccc2[nH]1)[C@H]1CCC[C@@H](NCc2cc(C(C)C)no2)C1 [Compound 471]
22,< 100 nM,CCN(C(=O)c1nc2ccccc2[nH]1)[C@H]1CCC[C@@H](NCc2cccc(OC(F)(F)F)c2)C1 [Compound 472]
23,< 100 nM,CCN(C(=O)c1nc2ccccc2[nH]1)[C@H]1CCC[C@@H](NCc2ccc(OC(F)(F)F)cc2)C1 [Compound 473]
24,100 to 500 nM,CCN(C(=O)c1nc2ccccc2[nH]1)[C@H]1CCC[C@@H](NCc2ccc3nccn3c2)C1 [Compound 474]
25,< 100 nM,CCN(C(=O)c1nc2ccccc2[nH]1)[C@H]1CCC[C@@H](NCc2ccc(F)cc2)C1 [Compound 475]
26,< 100 nM,CCN(C(=O)c1nc2ccccc2[nH]1)[C@H]1CCC[C@@H](NCc2oc3ccccc3c2C)C1 [Compound 476]
27,< 100 nM,CCN(C(=O)c1nc2ccccc2[nH]1)[C@H]1CCC[C@@H](NCc2cccc(OC)c2)C1 [Compound 477]
28,< 100 nM,CCN(C(=O)c1nc2ccccc2[nH]1)[C@H]1CCC[C@@H](NCc2cc3cc(F)ccc3o2)C1 [Compound 478]

row,IC50,SMILES
1,< 100 nM,CCN(C(=O)c1nc2ccccc2[nH]1)[C@H]1CCC[C@@H](NCc2cc3ccccc3o2)C1 [Compound 479]
2,< 100 nM,CCN(C(=O)c1nc2ccccc2[nH]1)[C@H]1CCC[C@@H](NCc2cccc(F)c2)C1 [Compound 480]
3,< 100 nM,"CCN(C(=O)c1nc2c(C#N)cccc2[nH]1)[C@H]1CCC[C@@H](NCc2ccccc2)C1 [Compound 481, N-((1S,3R)-3-(benzylamino)cyclohexyl)-4-cyano-N-ethyl-1H-benzo[d]imidazole-2-carboxamide]"
4,< 100 nM,CCN(C(=O)c1nc2c(F)cccc2[nH]1)[C@H]1CCC[C@@H](NCc2ccccc2)C1 [Compound 482]
5,< 100 nM,CCN(C(=O)c1nc2cc(F)ccc2[nH]1)[C@H]1CCC[C@@H](NCc2ccccc2)C1 [Compound 483]
6,< 100 nM,CCN(C(=O)c1nc2c(OC)cccc2[nH]1)[C@H]1CCC[C@@H](NCc2ccccc2)C1 [Compound 484]
7,< 100 nM,CCN(C(=O)c1nc2cc(C#N)ccc2[nH]1)[C@H]1CCC[C@@H](NCc2ccccc2)C1 [Compound 485]
8,100 to 500 nM,CCN(C(=O)c1cc2ncncc2[nH]1)[C@H]1CCC[C@@H](NCc2ccccc2)C1 [Compound 486]
9,< 100 nM,"CCN(C(=O)c1nc2ccccc2[nH]1)[C@H]1CCC[C@@H](NCc2ccc3ncoc3c2)C1 [Compound 487, N-((1S,3R)-3-((benzo[d]oxazol-6-ylmethyl)amino)cyclohexyl)-N-ethyl-1H-benzo[d]imidazole-2-carboxamide]"
10,< 100 nM,CCN(C(=O)c1nc2ccccc2[nH]1)[C@H]1CCC[C@@H](NCc2nc3ccccc3s2)C1 [Compound 488]
11,< 100 nM,CCN(C(=O)c1nc2ccccc2[nH]1)[C@H]1CCC[C@@H](NCc2ccc3ocnc3c2)C1 [Compound 489]
12,< 100 nM,CCN(C(=O)c1nc2ccccc2[nH]1)[C@H]1CCC[C@@H](NCc2cc3ccccc3s2)C1 [Compound 490]
13,< 100 nM,CCN(C(=O)c1nc2ccccc2[nH]1)[C@H]1CCC[C@@H](NCc2cc3ncccc3o2)C1 [Compound 491]
14,< 100 nM,CCN(C(=O)c1nc2ccccc2[nH]1)[C@H]1CCC[C@@H](NCc2ccc3cncn3c2)C1 [Compound 492]
15,< 100 nM,CCN(C(=O)c1nc2ccccc2[nH]1)[C@H]1CCC[C@@H](NCc2cc3ccccn3c2)C1 [Compound 493]
16,< 100 nM,"CCN(C(=O)c1nc2ccccc2[nH]1)[C@H]1CCC[C@@H](NCc2cn3ccccc3n2)C1 [Compound 494, N-ethyl-N-((1S,3R)-3-((imidazo[1,2-a]pyridin-2-ylmethyl)amino)cyclohexyl)-1H-benzo[d]imidazole-2-carboxamide]"
17,< 100 nM,"CCN(C(=O)c1nc2ccccc2[nH]1)[C@H]1CCC[C@@H](NCc2cc(C3CC3)no2)C1 [Compound 495, N-((1S,3R)-3-(((3-cyclopropylisoxazol-5-yl)methyl)amino)cyclohexyl)-N-ethyl-1H-benzo[d]imidazole-2-carboxamide]"
18,< 100 nM,CCN(C(=O)c1cc2ccccc2[nH]1)[C@H]1CCC[C@@H](NCc2oc3ccccc3c2C#N)C1 [Compound 496]
19,< 100 nM,CCN(C(=O)c1nc2ccccc2[nH]1)[C@H]1CCC[C@@H](NCc2oc3ccccc3c2C#N)C1 [Compound 497]
20,< 100 nM,CCN(C(=O)c1cc2c(OC)cccc2[nH]1)[C@H]1CCC[C@@H](NCc2oc3ccccc3c2C#N)C1 [Compound 498]
21,> 2000 nM,"CCN(C(=O)c1cc2ccccc2[nH]1)[C@H]1CCC[C@@H](Nc2nnc(C3CC3)s2)C1 [Compound 499, N-((1S,3R)-3-((5-cyclopropyl-1,3,4-thiadiazol-2-yl)amino)cyclohexyl)-N-ethyl-1H-indole-2-carboxamide]"
22,> 2000 nM,CCN(C(=O)c1cc2ccccc2[nH]1)[C@H]1CCC[C@@H](Nc2nnc(C)s2)C1 [Compound 500]
23,> 2000 nM,CCN(C(=O)c1cc2ncccc2[nH]1)[C@H]1CCC[C@@H](Nc2ccccc2)C1 [Compound 501]
24,500 to 2000 nM,"CCN(C(=O)c1cc2c([nH]1)CC(C)(C)OC2)[C@H]1CCC[C@@H](NCc2ccccc2)C1 [Compound 502, N-((1S,3R)-3-(benzylamino)cyclohexyl)-N-ethyl-6,6-dimethyl-1,4,6,7-tetrahydropyrano[4,3-b]pyrrole-2-carboxamide]"
25,100 to 500 nM,CCN(C(=O)c1cc2c([nH]1)CCOC2)[C@H]1CCC[C@@H](NCc2ccccc2)C1 [Compound 503]
26,< 100 nM,"CCN(C(=O)c1cc2ccccc2[nH]1)[C@H]1COC[C@@H](N[C@@H]2CCc3ccccc32)C1 [Compound 504, N-((3R,5S)-5-(((R)-2,3-dihydro-1H-inden-1-yl)amino)tetrahydro-2H-pyran-3-yl)-N-ethyl-1H-indole-2-carboxamide]"
27,> 2000 nM,"CCN(C(=O)c1cc2ccccc2[nH]1)[C@@H]1COC[C@H](N[C@@H]2CCc3ccccc32)C1 [Compound 505, N-((3S,5R)-5-(((R)-2,3-dihydro-1H-inden-1-yl)amino)tetrahydro-2H-pyran-3-yl)-N-ethyl-1H-indole-2-carboxamide]"

# From patent US11542233B2, “Compounds, compositions and methods of use” (Aquinnah Pharmaceuticals, Inc., priority 2016, dated 2023)
